Reference: patent publication US10052320B2, “Substituted quinoxalines as FGFR kinase inhibitors” (ASTEX THERAPEUTICS LIMITED, priority 2011, dated 2018)
Like-named read-outs stand apart in the source and are kept apart here.

Experiments:
FGFR4 (h) = FGFR4 (h) (Homo sapiens, UniProt P22455); experiment: FGFR4 (enzymatic assay), TR-FRET; assay type: biochemical; settings: read-out: FGFR 4 pIC50 (converted)
Experimental: In a final reaction volume of 30 μL, FGFR4 (h) (60 ng/ml) was incubated with 50 mM HEPES pH 7.5, 6 mM MnCl2, 1 mM DTT, 0.1 mM Na3VO4, 0.01% Triton-X-100, 500 nM Btn-Flt3 and 5 μM ATP in the presence of compound (1% DMSO final). […] Time-Resolved Fluorescence Resonance Energy Transfer (TR-FRET) signal (ex340 nm. Em 620 nm, em 655 nm) was measured afterwards and results are expressed in RFU (Relative Fluorescence Units).

[1] = system: Ba/F3-FGFR3-transfected cells in the presence of 10 ng/ml murine IL3; experiment: Ba/F3-FGFR3 (plus IL3) cellular proliferation counterscreen, Alamar Blue; assay type: cell-based; settings: for IC50: Mus musculus
Experimental: Ba/F3-FGFR3 (Minus IL3 or Plus IL3) (Cellular Proliferation Assay)
(§1) In a 384 well plate, 100 nl of compound dilution in DMSO was sprayed before adding 50 μl cell culture medium (phenol red free RPMI-1640, 10% FBS, 2 mM L-Glutamine and 50 μg/ml Gentamycin) containing 20000 cells per well of Ba/F3-FGFR3-transfected cells. Cells were put in an incubator at 37° C. and 5% CO2. After 24 hours, 10 μl of Alamar Blue solution (0.5 mM K3Fe(CN)6, 0.5 mM KaFe(CN)6, 0.15 mM Resazurin and 100 mM Phosphate Buffer) was added to the wells, incubated for 4 hours at 37° C. and 5% CO2 before RFU's (Relative Fluorescence Units) (ex. 540 nm., em. 590 nm.) were measured in a flurorescence plate reader.
(§2) As a counterscreen the same experiment was performed in the presence of 10 ng/ml murine IL3.
as §1, with “a 96” for “a 384”, “plate, 180” for “plate, 100 nl of compound dilution in DMSO was sprayed before adding 50”, “containing 10000” for “containing 20000”, “Ba/F3-FGFR3-transfected cells were pipette and 20 μl of compound dilution in DMSO was added.” for “Ba/F3-FGFR3-transfected cells.”, “hours, 40” for “hours, 10”

[2] = target: Ba/F3-KDR-transfected cells (Homo sapiens, UniProt P35968); experiment: Ba/F3-KDR (minus IL3) cellular proliferation assay, Alamar Blue; assay type: cell-based
Experimental: Ba/F3-KDR (Minus IL3 or Plus IL3) (Cellular Proliferation Assay)
as §1, with “Ba/F3-KDR-transfected” for “Ba/F3-FGFR3-transfected”
as §2
as §1, with “a 96” for “a 384”, “plate, 180” for “plate, 100 nl of compound dilution in DMSO was sprayed before adding 50”, “containing 10000” for “containing 20000”, “of Ba/F3-KDR-transfected cells were pipette and 20 μl of compound dilution in DMSO was added.” for “of Ba/F3-FGFR3-transfected cells.”, “hours, 40” for “hours, 10”, “CO2” for “CO2 before”

[3] = plus 10 ng/ml murine IL3, 384 well, read-out: BAF3-FGFR 3 (PLUS IL3) 384 well pIC50 (converted)
[4] = plus 10 ng/ml murine IL3, 384 well

Sequence of Ba/F3-KDR-transfected cells (P35968 whole entry, change not shown): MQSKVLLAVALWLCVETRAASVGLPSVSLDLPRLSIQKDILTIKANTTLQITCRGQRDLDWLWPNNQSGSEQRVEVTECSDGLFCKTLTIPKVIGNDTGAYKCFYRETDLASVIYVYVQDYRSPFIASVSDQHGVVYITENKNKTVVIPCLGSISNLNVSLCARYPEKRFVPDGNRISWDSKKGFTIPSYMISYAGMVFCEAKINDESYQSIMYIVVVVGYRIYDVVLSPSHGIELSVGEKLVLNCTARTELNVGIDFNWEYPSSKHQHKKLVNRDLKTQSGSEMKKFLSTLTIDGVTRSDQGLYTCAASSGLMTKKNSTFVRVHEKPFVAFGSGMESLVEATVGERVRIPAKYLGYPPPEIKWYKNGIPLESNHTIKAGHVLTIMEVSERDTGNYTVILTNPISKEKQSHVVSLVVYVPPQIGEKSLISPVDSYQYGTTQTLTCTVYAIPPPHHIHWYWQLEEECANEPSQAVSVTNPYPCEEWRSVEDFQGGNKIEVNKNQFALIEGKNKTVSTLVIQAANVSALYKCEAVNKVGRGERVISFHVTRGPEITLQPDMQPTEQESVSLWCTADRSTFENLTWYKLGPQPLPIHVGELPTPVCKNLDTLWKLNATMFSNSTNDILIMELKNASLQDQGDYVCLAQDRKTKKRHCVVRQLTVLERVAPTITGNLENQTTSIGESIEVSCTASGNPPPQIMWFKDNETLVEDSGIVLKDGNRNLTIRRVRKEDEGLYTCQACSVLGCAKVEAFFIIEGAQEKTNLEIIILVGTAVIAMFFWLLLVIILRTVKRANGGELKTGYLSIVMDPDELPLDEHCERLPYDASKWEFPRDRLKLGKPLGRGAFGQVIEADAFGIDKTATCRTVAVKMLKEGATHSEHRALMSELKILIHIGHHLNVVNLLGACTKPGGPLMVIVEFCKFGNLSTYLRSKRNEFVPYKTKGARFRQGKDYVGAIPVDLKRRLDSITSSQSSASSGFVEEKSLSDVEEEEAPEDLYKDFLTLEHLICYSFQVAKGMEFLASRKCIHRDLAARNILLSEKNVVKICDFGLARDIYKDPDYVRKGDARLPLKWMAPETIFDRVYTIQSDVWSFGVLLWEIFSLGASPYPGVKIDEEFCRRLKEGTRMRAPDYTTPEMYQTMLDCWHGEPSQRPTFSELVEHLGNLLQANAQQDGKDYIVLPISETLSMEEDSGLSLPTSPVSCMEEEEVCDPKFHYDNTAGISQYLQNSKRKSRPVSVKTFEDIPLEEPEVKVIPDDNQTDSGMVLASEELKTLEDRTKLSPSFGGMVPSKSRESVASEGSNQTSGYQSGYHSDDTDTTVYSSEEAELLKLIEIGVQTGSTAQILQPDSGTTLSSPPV
Sequence of FGFR4 (h) (P22455 22-802): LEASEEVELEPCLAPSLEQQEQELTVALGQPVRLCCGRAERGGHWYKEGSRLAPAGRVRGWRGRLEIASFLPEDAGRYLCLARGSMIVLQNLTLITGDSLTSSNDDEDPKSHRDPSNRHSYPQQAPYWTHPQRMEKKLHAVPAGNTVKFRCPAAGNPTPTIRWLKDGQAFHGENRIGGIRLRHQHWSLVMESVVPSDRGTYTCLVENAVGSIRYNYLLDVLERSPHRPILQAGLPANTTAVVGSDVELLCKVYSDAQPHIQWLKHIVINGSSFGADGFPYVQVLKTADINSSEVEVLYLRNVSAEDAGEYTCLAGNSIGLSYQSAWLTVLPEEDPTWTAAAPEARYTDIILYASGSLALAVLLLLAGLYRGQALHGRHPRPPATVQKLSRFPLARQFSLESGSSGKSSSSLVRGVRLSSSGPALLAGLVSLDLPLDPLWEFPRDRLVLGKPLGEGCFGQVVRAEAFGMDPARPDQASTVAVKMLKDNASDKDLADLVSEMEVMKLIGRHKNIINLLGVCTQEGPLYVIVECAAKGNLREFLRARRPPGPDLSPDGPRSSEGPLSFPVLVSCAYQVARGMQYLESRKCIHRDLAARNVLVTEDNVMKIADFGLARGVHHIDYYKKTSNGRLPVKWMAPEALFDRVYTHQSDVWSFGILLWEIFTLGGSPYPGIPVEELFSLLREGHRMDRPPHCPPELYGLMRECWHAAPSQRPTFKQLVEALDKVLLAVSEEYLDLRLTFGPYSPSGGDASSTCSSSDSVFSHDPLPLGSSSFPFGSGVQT

| SMILES | IC50 (FGFR4 (h)) [nM] | BAF3-KDR (MIN IL3) 384 well pIC50 ([2]; minus IL3) | other results |
| --- | --- | --- | --- |
| COCC(O)CN(c1cc(OC)cc(OC)c1)c1ccc2ncc(-c3cccnc3)nc2c1 (single isomer, unassigned) [Compound 46] | 47.9 | <5 | IC50 [1, 3]: > 10000 nM |
| COCC(O)CN(c1cc(OC)cc(OC)c1)c1ccc2ncc(-c3cccnc3)nc2c1 (single isomer, unassigned) [Compound 47] | 115 | <5 | BAF3-FGFR 3 (PLUS IL3) 384 well pIC50 [1, 4]: <5 |
| COCC(CN(c1cc(OC)cc(OC)c1)c1ccc2ncc(-c3cccnc3)nc2c1)OC(C)=O (single isomer, unassigned) [Compound 52] | 407 | <5 |  |
| COCC(CN(c1cc(OC)cc(OC)c1)c1ccc2ncc(-c3cccnc3)nc2c1)OC(C)=O (single isomer, unassigned) [Compound 76] | 107 | <5 | BAF3-FGFR 3 (PLUS IL3) 384 well pIC50 [1, 4]: <5 |
| COc1cc(OC)cc(N(CC#Cc2ncccn2)c2ccc3ncc(-c4cccnc4)nc3c2)c1 [Compound 2] | 195 | <5 |  |
| COc1cc(OC)cc(N(CCCNCC(F)(F)F)c2ccc3ncc(-c4ccn(C)c4)nc3c2)c1 [Compound 5] |  | 5.07 |  |
| COc1cc(OC)cc(N(CCO)c2ccc3ncc(-c4ccc(N5CCOCC5)nc4)nc3c2)c1 [Compound 19] | 17.8 | <5 |  |
| COc1cc(OC)cc(N(CC2CC2)c2ccc3ncc(C#Cc4cncn4C)nc3c2)c1 [Compound 22] | 275 |  | BAF3-KDR (MIN IL3) 384 well pIC50 ([2]; minus IL3, 384 well): <5 |
| COc1cc(OC)cc(N(CCCNCC(F)(F)F)c2ccc3ncc(-c4cnc(OC)nc4)nc3c2)c1 [Compound 26] | 479 | <5 | IC50 [1, 3]: > 10000 nM |
| COc1cc(OC)cc(N(CC2CC2)c2ccc3ncc(C(=O)Nc4cncn4C)nc3c2)c1 [Compound 27] | > 10000 | <5 |  |
| COc1cc(OC)cc(N(CC2CC2)c2ccc3ncc(-c4ccnc(N5CCN(C)CC5)c4)nc3c2)c1 [Compound 37] | 302 |  | BAF3-KDR (MIN IL3) 384 well pIC50 ([2]; minus IL3, 384 well): <5 |
| COc1cc(OC)cc(N(CCO)c2ccc3ncc(-n4cnc(CO)c4)nc3c2)c1 [Compound 38] | 93.3 | <5 |  |
| COc1cc(OC)cc(N(CCCO)c2ccc3ncc(-c4ccnc(C(=O)N5CCOCC5)c4)nc3c2)c1 [Compound 43] | 45.7 | 5.07 |  |
| COc1cc(OC)cc(N(CCCNCC(=O)O)c2ccc3ncc(-c4ccnc(C(=O)NCCCCN)c4)nc3c2)c1 [Compound 44] | 51.3 | <5 |  |
| COc1cc(OC)cc(N(CC2CC2)c2ccc3ncc(N4CCN(CCO)CC4)nc3c2)c1 [Compound 49] | 1580 | <5 |  |
| COc1cc(OC)cc(N(CCN2CCNCC2)c2ccc3ncc(-c4ccc(N)nc4)nc3c2)c1 [Compound 59] | 64.6 | 5.66 |  |
| COc1cc(OC)cc(N(CC2CC2)c2ccc3ncc(N4CCN(C)CC4)nc3c2)c1 [Compound 64] | 2880 |  | BAF3-KDR (MIN IL3) 384 well pIC50 ([2]; minus IL3, 384 well): <5 |
| COc1cc(OC)cc(N(CCO)c2ccc3ncc(N4CCC(CN)CC4)nc3c2)c1 [Compound 84] | 617 | <5 |  |
| COc1cc(OC)cc(N(CC2CC2)c2ccc3ncc(-c4nnc(C)o4)nc3c2)c1 [Compound 85] | 1480 |  | BAF3-KDR (MIN IL3) 384 well pIC50 ([2]; minus IL3, 384 well): <5 |
| COc1cc(OC)cc(N(CC2CC2)c2ccc3ncc(-c4ccc5[nH]ccc5c4)nc3c2)c1 [Compound 86] | 3980 |  | BAF3-KDR (MIN IL3) 384 well pIC50 ([2]; minus IL3, 384 well): <5 |

More lines, main results first:

| IC50 (FGFR4 (h)) [nM] | BAF3-KDR (MIN IL3) 384 well pIC50 ([2]; minus IL3) | SMILES | other results |
| --- | --- | --- | --- |
| 3550 |  | COc1cc(OC)cc(N(CC2CC2)c2ccc3ncc(-c4ccc5c(c4)OCO5)nc3c2)c1 [Compound 87] | BAF3-KDR (MIN IL3) 384 well pIC50 ([2]; minus IL3, 384 well): <5.4 |
| > 10000 |  | COc1cc(OC)cc(N(CC2CC2)c2ccc3ncc(-c4cnc5[nH]ccc5c4)nc3c2)c1 [Compound 88] | BAF3-KDR (MIN IL3) 384 well pIC50 ([2]; minus IL3, 384 well): <5 |
| > 10000 |  | COc1cc(OC)cc(N(CC2CC2)c2ccc3ncc(-c4ccnc(N5CCOCC5)c4)nc3c2)c1 [Compound 90] | IC50 ([1]; plus IL3, 96 well, read-out: BAF3-FGFR 3 (PLUS IL3) 96 well pIC50 (converted)): > 10000 nM |
| 2400 | <5 | COc1cc(OC)cc(N(CC2CC2)c2ccc3ncc(-c4cccc(N5CCOCC5)c4)nc3c2)c1 [Compound 92] |  |
| > 10000 | <5 | COc1cc(OC)cc(N(CC2CC2)c2ccc3ncc(C(=O)N4CCC4)nc3c2)c1 [Compound 93] |  |
| > 10000 | <5 | COc1cc(OC)cc(N(CC2CC2)c2ccc3ncc(-n4cccn4)nc3c2)c1 [Compound 95] |  |
| 151 | <5 | COc1cc(OC)cc(N(CCCO)c2ccc3ncc(-c4ccnc(C(=O)NCCCCCN)c4)nc3c2)c1 [Compound 130] |  |
| 21.4 | 5.37 | COc1cc(OC)cc(N(CCCNC(C)C)c2ccc3ncc(-c4ccnc(NC(=O)NC(C)C)c4)nc3c2)c1 [Compound 131] |  |
| 117 | 5.04 | COc1cc(OC)cc(N(CCCNCCCO)c2ccc3ncc(-c4ccnc(C(=O)NCCCCN)c4)nc3c2)c1 [Compound 132] |  |
| > 1000 | <5 | COc1cc(OC)cc(N(CCCO)c2ccc3ncc(-c4ccnc(-c5ccnc(Cl)c5)c4)nc3c2)c1 [Compound 133] |  |
| 28.8 | 5.33 | COc1cc(OC)cc(N(CCCO)c2ccc3ncc(-c4cnc(N5CCN(C)CC5)c(C)c4)nc3c2)c1 [Compound 135] |  |
| 97.7 | <5 | COc1cc(OC)cc(N(CCCO)c2ccc3ncc(-c4ccnc(Cl)c4)nc3c2)c1 [Compound 136] |  |
| 42.7 | 5.67 | COc1cc(OC)cc(N(CCCNC(C)C)c2ccc3ncc(-c4ccnc(NC(=O)OC(C)(C)C)c4)nc3c2)c1 [Compound 137] |  |
| 178 | <5 | COc1cc(OC)cc(N(CCO)c2ccc3ncc(-c4ccnc(C(=O)NCCCCCN)c4)nc3c2)c1 [Compound 138] |  |
| 9.55 | 5.33 | COc1cc(OC)cc(N(CCCNC(C)C)c2ccc3ncc(-c4ccnc(N)c4)nc3c2)c1 [Compound 143] |  |
| 468 | <5 | COc1cc(OC)cc(N(CCCNCC(F)(F)F)c2ccc3ncc(-c4ccnc(F)c4)nc3c2)c1 [Compound 144] |  |
| 49 | <5 | COc1cc(OC)cc(N(CCNC(C)C)c2ccc3ncc(-c4ccnc(C(=O)NCCCN)c4)nc3c2)c1 [Compound 146] |  |
| 603 | <5 | COc1cc(OC)cc(N(CCCNCC(F)(F)F)c2ccc3ncc(-c4ccnc(C(=O)NCCCN)c4)nc3c2)c1 [Compound 148] |  |
| 166 | <5 | COc1cc(OC)cc(N(CCCO)c2ccc3ncc(-c4cccnc4F)nc3c2)c1 [Compound 149] |  |
